# Assay results from US20220024891A1 (The Board of Regents of the University of Texas System, priority 2018, published 2022).
row,SMILES,melting point [°C]
1,"Cc1ccc(S(=O)(=O)N2CCC(N3CCC(C)CC3)CC2)cc1 [compound 11, 4-Methyl-1′-tosyl-1,4′-bipiperidine]",139 to 142
2,"CCc1ccc(S(=O)(=O)N2CCC(N3CCC(C)CC3)CC2)cc1 [compound 12, 1′-((4-Ethylphenyl)sulfonyl)-4-methyl-1,4′-bipiperidine]",108 to 110
3,"CC1CCN(C2CCN(S(=O)(=O)c3ccc(C(C)C)cc3)CC2)CC1 [compound 13, 1′-((4-Isopropylphenyl)sulfonyl)-4-methyl-1,4′-bipiperidine]",144 to 147
4,"CC1CCN(C2CCN(S(=O)(=O)c3ccc(C(C)(C)C)cc3)CC2)CC1 [compound 14, 1′-((4-(Tert-butyl)phenyl)sulfonyl)-4-methyl-1,4′-bipiperidine]",173 to 176
5,"CC1CCN(C2CCN(S(=O)(=O)c3ccc(Br)cc3)CC2)CC1 [compound 17, 1′-((4-Bromophenyl)sulfonyl)-4-methyl-1,4′-bipiperidine]",165 to 168
6,"CCCOc1ccc(S(=O)(=O)N2CCC(N3CCC(C)CC3)CC2)cc1 [compound 18, 4-Methyl-1′-((4-propoxyphenyl)sulfonyl)-1,4′-bipiperidine]",118 to 121
7,"CCCCOc1ccc(S(=O)(=O)N2CCC(N3CCC(C)CC3)CC2)cc1 [compound 19, 1′-((4-Butoxyphenyl)sulfonyl)-4-methyl-1,4′-bipiperidine]",137 to 139
8,"CC1CCN(C2CCN(S(=O)(=O)c3ccc(OC(F)(F)F)cc3)CC2)CC1 [compound 21, 4-Methyl-1′-((4-(trifluoromethoxy)phenyl)sulfonyl)-1,4′-bipiperidine]",168 to 170
9,"COc1cccc(S(=O)(=O)N2CCC(N3CCC(C)CC3)CC2)c1 [compound 23, 1′-((3-Methoxyphenyl)sulfonyl)-4-methyl-1,4′-bipiperidine]",81 to 83
10,"CC1CCN(C2CCN(S(=O)(=O)c3cccc(C(F)(F)F)c3)CC2)CC1 [compound 27, 4-Methyl-1′-((3-(trifluoromethyl)phenyl)sulfonyl)-1,4′-bipiperidine]",123 to 125
11,"CC1CCN(C2CCN(S(=O)(=O)c3cccc(Cl)c3)CC2)CC1 [compound 28, 1′-((3-Chlorophenyl)sulfonyl)-4-methyl-1,4′-bipiperidine]",122 to 124
12,"CC1CCN(C2CCN(S(=O)(=O)c3ccccc3Br)CC2)CC1 [compound 30, 1′-((2-Bromophenyl)sulfonyl)-4-methyl-1,4′-bipiperidine]",82 to 84
13,"COc1ccc(Br)cc1S(=O)(=O)N1CCC(N2CCC(C)CC2)CC1 [compound 33, 1′-((5-Bromo-2-methoxyphenyl)sulfonyl)-4-methyl-1,4′-bipiperidine]",98 to 102
14,"COc1cc(C)ccc1S(=O)(=O)N1CCC(N2CCC(C)CC2)CC1 [compound 34, 1′-((2-Methoxy-4-methylphenyl)sulfonyl)-4-methyl-1,4′-bipiperidine]",95 to 98
15,"CC1CCN(C2CCN(S(=O)(=O)c3ccc([N+](=O)[O-])c(C(F)(F)F)c3)CC2)CC1 [compound 35, 4-Methyl-1′-((4-nitro-3-(trifluoromethyl)phenyl)sulfonyl)-1,4′-bipiperidine]",175 to 178
16,"Cc1ccc(C#N)c(S(=O)(=O)N2CCC(N3CCC(C)CC3)CC2)c1 [compound 36, 4-Methyl-2-((4-methyl-[1,4′-bipiperidin]-1′-yl)sulfonyl)benzonitrile]",118 to 121

row,SMILES,melting point [°C]
1,"Cc1ccc(S(=O)(=O)N2CCC(N3CCC(C)CC3)CC2)cc1C [compound 37, 1′-((3,4-Dimethylphenyl)sulfonyl)-4-methyl-1,4′-bipiperidine]",87 to 89
2,"CCc1cc(Br)ccc1S(=O)(=O)N1CCC(N2CCC(C)CC2)CC1 [compound 38, 1′-((4-Bromo-2-ethylphenyl)sulfonyl)-4-methyl-1,4′-bipiperidine]",87 to 91
3,"CC1CCN(C2CCN(S(=O)(=O)c3ccc(Cl)c(C(F)(F)F)c3)CC2)CC1 [compound 39, 1′-((4-Chloro-3-(trifluoromethyl)phenyl)sulfonyl)-4-methyl-1,4′-bipiperidine]",118 to 120
4,"CC1CCN(C2CCN(S(=O)(=O)c3ccc(Cl)cc3Cl)CC2)CC1 [compound 41, 1′-((2,4-Dichlorophenyl)sulfonyl)-4-methyl-1,4′-bipiperidine]",75 to 78
5,"CC1CCN(C2CCN(S(=O)(=O)c3ccc(F)cc3F)CC2)CC1 [compound 44, 1′-((2,4-Difluorophenyl)sulfonyl)-4-methyl-1,4′-bipiperidine]",165 to 168
6,"CC1CCN(C2CCN(S(=O)(=O)c3ccc(Br)cc3OC(F)(F)F)CC2)CC1 [compound 45, 1′-((4-Bromo-2-(trifluoromethoxy)phenyl)sulfonyl)-4-methyl-1,4′-bipiperidine]",108 to 110
7,"Cc1cc(C)c(S(=O)(=O)N2CCC(N3CCC(C)CC3)CC2)c(C)c1 [compound 47, 1′-(Mesitylsulfonyl)-4-methyl-1,4′-bipiperidine]",62 to 65
8,"Cc1cc(Cl)cc(Cl)c1S(=O)(=O)N1CCC(N2CCC(C)CC2)CC1 [compound 49, 1′-((2,4-Dichloro-6-methylphenyl)sulfonyl)-4-methyl-1,4′-bipiperidine]",89 to 91
9,"CC1CCN(C2CCN(S(=O)(=O)c3ccccc3-c3ccccc3)CC2)CC1 [compound 51, 1′-([1,1′-Biphenyl]-2-ylsulfonyl)-4-methyl-1,4′-bipiperidine]",106 to 109
10,"CC1CCN(C2CCN(S(=O)(=O)c3ccc(-c4ccccc4)cc3)CC2)CC1 [compound 56, 1′-([1,1′-Biphenyl]-4-ylsulfonyl)-4-methyl-1,4′-bipiperidine]",178 to 181
11,"CC1CCN(C2CCN(S(=O)(=O)c3ccc(-c4ccc(Cl)cc4)cc3)CC2)CC1 [compound 57, 1′-((4′-Cloro-[1,1′-biphenyl]-4-yl)sulfonyl)-4-methyl-1,4′-bipiperidine]",205 to 207
12,"COc1ccc(-c2ccc(S(=O)(=O)N3CCC(N4CCC(C)CC4)CC3)cc2)cc1 [compound 58, 1′-((4′-Methoxy-[1,1′-biphenyl]-4-yl)sulfonyl)-4-methyl-1,4′-bipiperidine]",195 to 198
13,"COc1ccc(-c2cccc(S(=O)(=O)N3CCC(N4CCC(C)CC4)CC3)c2)cc1 [compound 63, 1′-((4′-Methoxy-[1,1′-biphenyl]-3-yl)sulfonyl)-4-methyl-1,4′-bipiperidine]",107 to 109
14,"CC1CCN(C2CCN(S(=O)(=O)c3cccc(-c4ccccc4C(F)(F)F)c3)CC2)CC1 [compound 68, 4-Methyl-1′-((2′-(trifluoromethyl)-[1,1′-biphenyl]-3-yl)sulfonyl)-1,4′-bipiperidine]",110 to 112
15,"Cc1cc(C)cc(-c2cccc(S(=O)(=O)N3CCC(N4CCC(C)CC4)CC3)c2)c1 [compound 69, 1′-((3′,5′-Dimethyl-[1,1′-biphenyl]-3-yl)sulfonyl)-4-methyl-1,4′-bipiperidine]",120 to 123

# More lines, now with the values ahead:
row,melting point [°C],SMILES
1,154 to 156,"CC1CCN(C2CCN(S(=O)(=O)c3ccccc3)CC2)CC1 [compound 5, 4-methyl-1′-(phenylsulfonyl)-1,4′-bipiperidine]"
2,165 to 168,"CC1CCN(C2CCN(S(=O)(=O)c3ccc([N+](=O)[O-])cc3)CC2)CC1 [compound 7, 4-Methyl-1′-((4-nitrophenyl)sulfonyl)-1,4′-bipiperidine]"
3,184 to 186,"CC1CCN(C2CCN(S(=O)(=O)c3ccc(C#N)cc3)CC2)CC1 [compound 9, 4-((4-Methyl-[1,4′-bipiperidin]-1′-yl)sulfonyl)benzonitrile]"
4,175 to 178,"CC1CCN(C2CCN(S(=O)(=O)c3ccc(C(F)(F)F)cc3)CC2)CC1 [compound 15, 4-Methyl-1′-((4-(trifluoromethyl)phenyl)sulfonyl)-1,4′-bipiperidine]"
5,157 to 159,"CC1CCN(C2CCN(S(=O)(=O)c3ccc(OCc4ccccc4)cc3)CC2)CC1 [compound 20, 1′-((4-(Benzyloxy)phenyl)sulfonyl)-4-methyl-1,4′-bipiperidine]"
6,90 to 93,"Cc1cccc(S(=O)(=O)N2CCC(N3CCC(C)CC3)CC2)c1 [compound 26, 4-Methyl-1′-(m-tolylsulfonyl)-1,4′-bipiperidine]"
7,125 to 126,"CC1CCN(C2CCN(S(=O)(=O)c3cccc(Br)c3)CC2)CC1 [compound 29, 1′-((3-Bromophenyl)sulfonyl)-4-methyl-1,4′-bipiperidine]"
8,132 to 134,"COc1ccc(S(=O)(=O)N2CCC(N3CCC(C)CC3)CC2)cc1OC [compound 31, 1′-((3,4-Dimethoxyphenyl)sulfonyl)-4-methyl-1,4′-bipiperidine]"
9,75 to 78,"COc1ccc(OC)c(S(=O)(=O)N2CCC(N3CCC(C)CC3)CC2)c1 [compound 32, 1′-((2,5-Dimethoxyphenyl)sulfonyl)-4-methyl-1,4′-bipiperidine]"
10,160 to 162,"CC1CCN(C2CCN(S(=O)(=O)c3ccc(Cl)c(Cl)c3)CC2)CC1 [compound 40, 1′-((3,4-Dichlorophenyl)sulfonyl)-4-methyl-1,4′-bipiperidine]"
11,128 to 131,"CC1CCN(C2CCN(S(=O)(=O)c3cc(Cl)cc(Cl)c3)CC2)CC1 [compound 42, 1′-((3,5-Dichlorophenyl)sulfonyl)-4-methyl-1,4′-bipiperidine]"
12,161 to 163,"CC1CCN(C2CCN(S(=O)(=O)c3cc(F)c(Br)c(F)c3)CC2)CC1 [compound 50, 1′-((4-Bromo-3,5-difluorophenyl)sulfonyl)-4-methyl-1,4′-bipiperidine]"
13,124 to 126,"CC1CCN(C2CCN(S(=O)(=O)c3cccc(-c4ccc(Cl)cc4)c3)CC2)CC1 [compound 62, 1′-((4′-Chloro-[1,1′-biphenyl]-3-yl)sulfonyl)-4-methyl-1,4′-bipiperidine]"
14,103 to 105,"Cc1ccc(-c2cccc(S(=O)(=O)N3CCC(N4CCC(C)CC4)CC3)c2)cc1 [compound 64, 4-Methyl-1′-((4′-methyl-[1,1′-biphenyl]-3-yl)sulfonyl)-1,4′-bipiperidine]"
